# Assay results from patent US20190358247A1 (The Medical College of Wisconsin, Inc., priority 2016, published 2019).
# Read-outs that look alike come from different tables or passages of the source.
# Experiments:
# MiaPaCa-2 cells [1] = assay: Clonogenic (colony formation) assay; assay type: cell-based, human
# Protocol: Clonogenic assay. […] The plates were kept within the incubator and media changed every 3-4 days until the control cells formed sufficiently large clones. The cell survival fractions were calculated as previously described.
# MiaPaCa-2 cells were treated with a range of concentrations as shown (FIG. 10C), and the number of colonies formed were counted.
# MiaPaCa-2 cells [2] = assay: Oxygen consumption rate in intact cells, Seahorse XF96; assay type: cell-based, human
# Protocol: (§1) Respiratory enzyme activity in intact and permeabilized cells. The mitochondrial function in intact and permeabilized pancreatic cancer cells was measured using a Seahorse XF96 Extracellular Flux Analyzer (Seahorse Bioscience, North Billerica, Mass., USA). Unless specified otherwise, assays in intact cells were performed as previously described. Measurement of mitochondrial respiratory complexes in permeabilized cells was performed according to the manufacturer's instructions (Seahorse Bioscience). Briefly, intact cells were permeabilized using 1 nM Plasma Membrane Permeabilizer (PMP, Seahorse Bioscience) immediately before oxygen consumption rate (OCR) measurement by XF96. The oxygen consumption derived from mitochondrial complex I or complex II activity was measured by providing different substrates to mitochondria, e.g., pyruvate/malate for complex I and succinate for complex II activity. Rotenone, malonate and antimycin A were used as specific inhibitors of mitochondrial complex I, II and III activities, respectively.
# Effects of Met and Mito-Met analogs on mitochondrial bioenergetics in MiaPaCa-2 cells. The oxygen consumption rate (OCR) and the extracellular acidification rate (ECAR) were measured as a readout of mitochondrial function and glycolysis using a Seahorse Bioscience XF96 extracellular flux analyzer. We compared the immediate OCR changes in response to different concentrations (e.g., IC50 or higher values determined by clonogenic assay) of Met, Mito-Met2, Mito-Met6, Mito-Met10, and phenformin (FIG. 13A).
# Next we monitored the mitochondrial OCR changes in MiaPaCa-2 cells after 24 h treatment with Met, Mito-Met analogs, and phenformin followed by a washout of the treatments and return to fresh cell culture media.
# MiaPaCa-2 cells [3] = assay: Radiosensitization, clonogenic survival after X-radiation; assay type: cell-based, human; settings: 24 h pretreatment (1 mM Met, 1 μM Mito-Met) before X-radiation
# Protocol: MiaPaCa2 cells (1000 cells/well) were cultured in quadruplicate overnight in 96-well plates and changed to fresh medium.
# Radiation experiments. […] The cells were then treated with X-radiation at a dose of 0, 2, 4, and 6 Gy. The control cells were treated with the same concentration of vehicle (0.1% DMSO) where appropriate. After irradiation, cells were suspended and seeded at various densities (100-8,000 cells per well) in 6-well plates for clonogenic assay as described above. The plates were kept within the incubator and media changed every 3-4 days for 2 weeks. Wells with 10-50 sufficiently large clones were chosen for calculating the cell survival fractions.
# Effect of Mito-Met and Met on PDAC radiosensitivity. Both control cells and cells were pretreated for 24 h with 1 mM Met or Mito-Met (1 μM) prior to X-radiation. Cell survival was measured by a clonogenic assay.
# [4] = mouse, in vivo
# Protocol: In an initial proof-of-concept experiment, syngeneic KPC cells expressing Firefly luciferase (FC1242-luc) were orthotopically implanted to the pancreas of C57BL/6 mice and tumor growth monitored using bioluminescence imaging (FIG. 15F). Mice orthotopically autografted with FC1242-luc cells were treated daily with 1 mg/kg or 150 mg/kg Met, or 1 mg/kg Mito-Met. […] Serum from these animals was collected, and hepatic and kidney toxicity tested using standard AST, ALT, AP, and BUN assays, respectively.
# MCF-10A = assay: IncuCyte cell confluence assay, nonmalignant breast epithelial cells; assay type: cell-based
# Protocol: (§2) IncuCyte Analyzer-real time measurement of cell proliferation. The cell proliferation was measured using a label-free, noninvasive cellular confluence assay by IncuCyte Live-Cell Imaging Systems (Essen Bioscience, Ann Arbor, Mich., USA; IncuCyte FLR). This system enables collection of live cell images at 2 h intervals over several days. The IncuCyte Analyzer provides real-time cellular confluence data based on segmentation of high-definition phase-contrast images. The cell proliferation is expressed as an increase in percentage of cell confluence.
# HaCaT = assay: IncuCyte cell confluence assay, keratinocytes; assay type: cell-based
# Protocol: as §2
# MiaPaCa-2 cells [5] = assay: Intracellular uptake by LC-MS/MS; settings: MiaPaCa-2, 1 μM, 1 h
# Protocol: Cells were grown on 10 cm dishes and treated with the compounds for 24 h in full media.
# Next we investigated the relative uptake of different Mito-Met analogs (Mito-Met2, Mito-Met6, and Mito-Met10) and phenformin in MiaPaCa-2 cells (FIG. 12D). Cells were treated with respective Mito-Met analog (1 μM) for 1 h. Cells were lysed after washing and analyzed for Mito-Met analog by LC-MS.
# mitochondrial complex I = mitochondrial complex I (Homo sapiens, UniProt O75251+O75306+P03886); assay: Complex I oxygen consumption (pyruvate/malate) in permeabilized cells, Seahorse XF96; assay type: cell-based; set-up: IC50, complex I oxygen consumption; other: permeabilized MiaPaCa-2, added acutely; settings: permeabilized MiaPaCa-2, added acutely
# Protocol: as §1
# The oxygen consumption rate was measured using the permeabilized MiaPaCa-2 cells in MAS buffer supplemented with pyruvate. The use of permeabilized cells avoids differences in cellular uptake of compounds. […] We tested the effect of pretreating cells with Mito-Met10 or Met using the permeabilized model. MiaPaCa-2 cells were treated with Met and Mito-Met10 for 24 h and the oxygen consumption studies were performed in these cells after permeabilization.
# MiaPaCa-2 cells [6] = assay: Sytox Green cytotoxicity assay; assay type: cell-based; settings: 100 μM, 24 h
# Protocol: Cytotoxicity assay. To determine the cytotoxicity of Mito-Met analogs and other TPP^+-conjugated to a long chain aliphatic hydrocarbon, we used the Sytox assay as described previously. MiaPaCa-2 cells were treated for 24 h, and dead cells were monitored in the presence of 200 nM Sytox Green (Invitrogen). The Sytox method labels the nuclei of dead cells yielding green fluorescence. Fluorescence intensities from the dead cells in 96-well plate were acquired in real time every 15 min after 4 h using a plate reader (BMG Labtech, Inc.) equipped with an atmosphere controller set at 37° C. and 5% CO2:95% air, using a fluorescence detection with 485 nm (excitation) and 535 nm (emission). To measure the total cell number, all of the samples in each treatment group were permeabilized by adding Triton X 100 (0.065%) in the presence of Sytox Green for 3 h, and maximal fluorescence intensities were taken as 100%. Data are represented as a percentage of dead cells after normalization to total cell number for each group.
# Induction of cell death was monitored by Sytox Green staining, as shown previously. MiaPaCa-2 cells were treated with Mito-Met10 (100 μM), Mito-CP (100 μM), or Met (30 mM) and other controls for 24 h and cell death was measured in real time.
# Sequence of mitochondrial complex I (P03886 whole entry): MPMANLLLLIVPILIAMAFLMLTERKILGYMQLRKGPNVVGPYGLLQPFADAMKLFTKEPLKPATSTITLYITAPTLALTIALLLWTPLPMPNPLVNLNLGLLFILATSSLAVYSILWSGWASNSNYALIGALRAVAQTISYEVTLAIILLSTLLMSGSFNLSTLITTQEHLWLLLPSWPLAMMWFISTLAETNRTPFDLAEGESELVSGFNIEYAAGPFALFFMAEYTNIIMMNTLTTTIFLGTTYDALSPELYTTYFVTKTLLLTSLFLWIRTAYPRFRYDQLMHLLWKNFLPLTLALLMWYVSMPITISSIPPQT
# Sequence of mitochondrial complex I (O75251 39-213): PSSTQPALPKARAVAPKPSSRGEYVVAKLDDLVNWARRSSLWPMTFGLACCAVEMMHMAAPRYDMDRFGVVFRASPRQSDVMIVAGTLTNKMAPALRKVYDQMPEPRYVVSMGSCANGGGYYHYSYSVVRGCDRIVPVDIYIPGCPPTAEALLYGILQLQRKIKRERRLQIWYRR
# Sequence of mitochondrial complex I (P03897 whole entry, further chain): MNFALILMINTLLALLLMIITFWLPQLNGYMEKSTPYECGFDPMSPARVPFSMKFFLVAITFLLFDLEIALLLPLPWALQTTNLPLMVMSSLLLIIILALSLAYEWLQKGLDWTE
# Sequence of mitochondrial complex I (O75306 34-463): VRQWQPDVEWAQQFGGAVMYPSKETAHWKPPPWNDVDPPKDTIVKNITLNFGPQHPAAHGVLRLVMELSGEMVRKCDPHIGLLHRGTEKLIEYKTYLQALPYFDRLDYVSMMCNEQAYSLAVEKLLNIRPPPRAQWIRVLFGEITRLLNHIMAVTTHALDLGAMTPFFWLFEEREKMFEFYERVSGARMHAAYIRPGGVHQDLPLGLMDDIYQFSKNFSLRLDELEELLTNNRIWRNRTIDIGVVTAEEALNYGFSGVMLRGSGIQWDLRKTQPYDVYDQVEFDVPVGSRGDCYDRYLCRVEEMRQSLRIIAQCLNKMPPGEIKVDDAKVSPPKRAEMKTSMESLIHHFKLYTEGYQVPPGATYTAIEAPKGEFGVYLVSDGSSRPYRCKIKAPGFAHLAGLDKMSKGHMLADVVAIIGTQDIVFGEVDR
# Sequence of mitochondrial complex I (O75489 37-264, further chain): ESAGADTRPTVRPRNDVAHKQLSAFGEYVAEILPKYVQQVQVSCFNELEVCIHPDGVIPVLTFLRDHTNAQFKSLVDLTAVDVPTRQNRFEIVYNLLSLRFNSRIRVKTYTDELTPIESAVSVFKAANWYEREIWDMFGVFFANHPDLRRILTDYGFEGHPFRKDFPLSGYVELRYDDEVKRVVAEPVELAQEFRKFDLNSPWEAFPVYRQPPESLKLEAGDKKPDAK
smiles,measurement,setting,value
"CN(C)C(=N)N=C(N)N [Metformin, metformin, reference compound]",colony formation,"MiaPaCa-2 cells [1]; 3 mM, 24 h",Almost no colony formation
same,IC50,"MiaPaCa-2 cells [1]; read-out: IC50, colony formation / survival fraction, MiaPaCa-2, 24 h treatment",1300 µM
same,concentration decreasing oxygen consumption,MiaPaCa-2 cells [2]; OCR measured immediately after addition,1 to 10 mM
same,radiosensitization,MiaPaCa-2 cells [3],increased radiosensitization
same,Kidney BUN,[4]; 1 mg/kg,30 ± 7 mg/dL
same,Liver ALT,[4]; 1 mg/kg,35 ± 15 IU/L
same,Liver AST,[4]; 1 mg/kg,189 ± 117 IU/L
same,Kidney BUN,[4]; 150 mg/kg,22 ± 2 mg/dL
same,Liver ALT,[4]; 150 mg/kg,19 ± 3 IU/L
same,Liver AST,[4]; 150 mg/kg,127 ± 24 IU/L
same,effect on cell confluence,MCF-10A,not significantly affected
same,effect on cell confluence,HaCaT,not significantly affected
same,cellular uptake compared with phenformin,MiaPaCa-2 cells [5],considerably lower than phenformin
same,concentration at which OCR was inhibited,mitochondrial complex I,"3,000 μM"
Br.N=C(N)NC(=N)NCC[P+](c1ccccc1)(c1ccccc1)c1ccccc1 [Mito-Met2],concentration at which OCR was inhibited,"MiaPaCa-2 cells [2]; 24 h treatment, washout",25 µM
"CC1(C)CC(OCCCCC[P+](c2ccccc2)(c2ccccc2)c2ccccc2)CC(C)(C)N1[O].[Br-] [Mito-Tempol, reference compound]","cell death, Sytox Green staining",MiaPaCa-2 cells [6],considerably more cytotoxic
"[H]/N=C(/N)N/C(=N/[H])NCCc1ccccc1 [phenformin, reference compound]",concentration inhibiting OCR to the same extent as Met,MiaPaCa-2 cells [2]; immediate,ten-fold lower concentration
